The values that follow come from ChEMBL document CHEMBL1141982, “A rate determining step change in the pre-steady state of acetylcholinesterase inhibitions by 1,n-alkane-di-N-butylcarbamates” (Bioorg Med Chem Lett, 2005).

In data set [1] the target is T1, Acetylcholinesterase (Homo sapiens, UniProt P22303). The experiment in a line: Dissociation constant for acetylcholinesterase.
Data set [2] concerns the target T1, Acetylcholinesterase. As to the kind of experiment: Inhibition constant for acetylcholinesterase.
Data set [3] has as its target T1, Acetylcholinesterase. As to the kind of experiment: Kinetic constant (k2) for acetylcholinesterase.
The nature of data set [4]: Carbamylation rate constant was determined.
The target of data set [5] is T1, Acetylcholinesterase. As to the kind of experiment: Ratio of k2/k-2 for acetylcholinesterase.
In data set [6] the target is T1, Acetylcholinesterase. As to the kind of experiment: Kinetic constant (k-2) for acetylcholinesterase.

T1 sequence (P22303 whole entry): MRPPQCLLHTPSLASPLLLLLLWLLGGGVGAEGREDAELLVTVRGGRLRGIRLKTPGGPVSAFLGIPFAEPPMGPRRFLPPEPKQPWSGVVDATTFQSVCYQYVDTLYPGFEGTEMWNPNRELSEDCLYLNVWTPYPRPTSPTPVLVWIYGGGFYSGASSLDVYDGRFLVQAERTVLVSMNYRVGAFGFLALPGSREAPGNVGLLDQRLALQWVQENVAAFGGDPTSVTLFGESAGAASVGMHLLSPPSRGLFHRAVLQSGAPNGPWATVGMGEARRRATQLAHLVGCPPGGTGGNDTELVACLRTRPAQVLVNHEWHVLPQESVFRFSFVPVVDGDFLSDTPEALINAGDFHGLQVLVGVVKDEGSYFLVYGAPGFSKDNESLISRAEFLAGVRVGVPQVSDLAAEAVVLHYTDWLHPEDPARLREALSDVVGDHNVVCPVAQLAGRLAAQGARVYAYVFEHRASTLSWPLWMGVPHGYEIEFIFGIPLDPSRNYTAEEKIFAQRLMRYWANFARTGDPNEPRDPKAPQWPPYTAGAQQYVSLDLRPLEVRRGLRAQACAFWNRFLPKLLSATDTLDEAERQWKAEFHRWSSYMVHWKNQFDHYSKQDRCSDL

Take `CCCCNC(=O)OCCCCCOC(=O)NCCCC`: the Ks on Acetylcholinesterase [1] is 1.4 µM. Also, the Ki (usually the equilibrium dissociation constant of an inhibitor or competing ligand from its target) at Acetylcholinesterase [2] amounted to 250 nM. Moreover, at Acetylcholinesterase [3], the k2 was 3.4 10e-3 1/s. Besides, the kc in data set [4] is listed as 3.3 10e-3 1/s. Also, the Ratio on Acetylcholinesterase [5] was 5.5. Also, on Acetylcholinesterase [6], the k-2 was 0.62 10e-3 1/s.
With `CCCCNC(=O)OCCCCCCCCCCOC(=O)NCCCC`, the Ks on Acetylcholinesterase [1] worked out at 0.37 µM. This compound also yielded a Ki at Acetylcholinesterase [2] of 160 nM. Besides, at Acetylcholinesterase [3], the k2 is 4.6 10e-3 1/s. The kc in data set [4] was 4.1 10e-3 1/s. In addition, the Ratio at Acetylcholinesterase [5] was 2.3. On Acetylcholinesterase [6], the k-2 was 2 10e-3 1/s.
As to `CCCCNC(=O)OCCOC(=O)NCCCC`, the Ks at Acetylcholinesterase [1] was determined as 2.9 µM. This compound also came in with a Ki at Acetylcholinesterase [2] of 360 nM. In addition, the k2 at Acetylcholinesterase [3] is 2.8 10e-3 1/s. Besides, the kc in data set [4] is 3 10e-3 1/s. Besides, the Ratio at Acetylcholinesterase [5] came to 8. For the same compound, the k-2 at Acetylcholinesterase [6] was 0.35 10e-3 1/s.
With `CCCCNC(=O)OCCCCCCCCCCCCCCOC(=O)NCCCC`, the Ks on Acetylcholinesterase [1] is 0.36 µM. The Ki at Acetylcholinesterase [2] was 160 nM. Moreover, at Acetylcholinesterase [3], the k2 is 5.4 10e-3 1/s. For the same compound, in data set [4], the kc was 4.9 10e-3 1/s. The Ratio at Acetylcholinesterase [5] came to 2.3. Further, the k-2 at Acetylcholinesterase [6] is 2.4 10e-3 1/s.
Take `CCCCNC(=O)OCCCCCO`: the Ks at Acetylcholinesterase [1] was found to be 2.2 µM. Moreover, at Acetylcholinesterase [2], the Ki is 1400 nM. Further, on Acetylcholinesterase [3], the k2 is 8.1 10e-3 1/s. For the same compound, the kc in data set [4] is recorded as 3.5 10e-3 1/s. The Ratio at Acetylcholinesterase [5] was determined as 2. Besides, the k-2 on Acetylcholinesterase [6] was 5 10e-3 1/s.
`CCCCNC(=O)OCCCCCCCCCCO`: the Ks on Acetylcholinesterase [1] is 0.52 µM. Further, the inhibitory constant (Ki) at Acetylcholinesterase [2] is 200 nM. Also, the k2 on Acetylcholinesterase [3] is 7.6 10e-3 1/s. The kc in data set [4] is listed as 3.9 10e-3 1/s. The Ratio at Acetylcholinesterase [5] came out at 2.5. Moreover, the k-2 at Acetylcholinesterase [6] is 3.1 10e-3 1/s.
`CCCCNC(=O)OCCCCCCCCCCCCO` registered a Ks on Acetylcholinesterase [1] of 0.65 µM. Moreover, at Acetylcholinesterase [2], the Ki came to 300 nM. Moreover, the k2 on Acetylcholinesterase [3] was 8.1 10e-3 1/s. Besides, the kc in data set [4] was 4.1 10e-3 1/s. In addition, the Ratio on Acetylcholinesterase [5] worked out at 2. For the same compound, at Acetylcholinesterase [6], the k-2 is 4 10e-3 1/s.
The compound `CCCCNC(=O)OCCCCCCCCCCCCCCCCOC(=O)NCCCC` registered a Ks on Acetylcholinesterase [1] of 0.34 µM. This compound also gave a Ki at Acetylcholinesterase [2] of 170 nM. At Acetylcholinesterase [3], the k2 was 6.1 10e-3 1/s. For the same compound, the kc in data set [4] is 5.3 10e-3 1/s. For the same compound, at Acetylcholinesterase [5], the Ratio came to 2. For the same compound, the k-2 at Acetylcholinesterase [6] was 3.1 10e-3 1/s.
For `CCCCNC(=O)OCCCCCCCCCCCCCCO`, the Ks at Acetylcholinesterase [1] was determined as 0.45 µM. The compound also showed a Ki at Acetylcholinesterase [2] of 200 nM. Besides, the k2 on Acetylcholinesterase [3] is 5.3 10e-3 1/s. The kc in data set [4] is 4.6 10e-3 1/s. On Acetylcholinesterase [5], the Ratio was 1.3. Also, the k-2 on Acetylcholinesterase [6] was 4 10e-3 1/s.
In turn, `CCCCNC(=O)OCCCCCCCCCCCCCCCCO` returned a Ks on Acetylcholinesterase [1] of 0.37 µM. This compound also came in with a Ki at Acetylcholinesterase [2] of 130 nM. For the same compound, the k2 at Acetylcholinesterase [3] is 6.1 10e-3 1/s. Also, the kc in data set [4] is 4.9 10e-3 1/s. Moreover, the Ratio on Acetylcholinesterase [5] was found to be 2. Besides, at Acetylcholinesterase [6], the k-2 is 3 10e-3 1/s.
`CCCCNC(=O)OCCCCCCCCO` showed a Ks at Acetylcholinesterase [1] of 0.88 µM. This compound also gave a Ki at Acetylcholinesterase [2] of 360 nM. On Acetylcholinesterase [3], the k2 is 7.2 10e-3 1/s. Besides, in data set [4], the kc is on record as 3.6 10e-3 1/s. For the same compound, the Ratio at Acetylcholinesterase [5] came to 2.4. Moreover, the k-2 on Acetylcholinesterase [6] is 3 10e-3 1/s.
The compound `CCCCNC(=O)OCCO` gave a Ks on Acetylcholinesterase [1] of 2.3 µM. Besides, the k2 at Acetylcholinesterase [3] was 7.5 10e-3 1/s. In addition, the kc in data set [4] is 3.1 10e-3 1/s. Also, the Ratio on Acetylcholinesterase [5] came to 1.5. Moreover, on Acetylcholinesterase [6], the k-2 is 5 10e-3 1/s.
As to `CCCCNC(=O)OCCCCCCCCCCCCOC(=O)NCCCC`, the Ks on Acetylcholinesterase [1] stood at 0.36 µM. Further, the affinity at Acetylcholinesterase [2], expressed as Ki, was 160 nM. Moreover, the k2 at Acetylcholinesterase [3] was 5 10e-3 1/s. Also, in data set [4], the kc is 4.6 10e-3 1/s. Further, the Ratio at Acetylcholinesterase [5] was found to be 2.2. Besides, the k-2 at Acetylcholinesterase [6] is 2.2 10e-3 1/s.
Take `CCCCNC(=O)OCCCCCCCCOC(=O)NCCCC`: on Acetylcholinesterase [1], the Ks turned out to be 0.39 µM. Affinity at Acetylcholinesterase [2] was put at a Ki of 150 nM. Besides, the k2 on Acetylcholinesterase [3] is 4.2 10e-3 1/s. For the same compound, in data set [4], the kc is given as 4 10e-3 1/s. Moreover, on Acetylcholinesterase [5], the Ratio amounted to 2.6. Moreover, the k-2 at Acetylcholinesterase [6] is 1.6 10e-3 1/s.
